The record followed here is patent US7235548B2, “Compounds and their use as positive AMPA receptor modulators” (NeuroSearch A/S, priority 1998, dated 2007).

SMILES strings stand for the structures.

In data set [1] the target is ionotropic quisqualate (AMPA) receptors. The data set is described as follows: In vitro inhibition of 3H-AMPA binding. As to conditions: 5 nM 3H-AMPA, rat cerebral cortex membranes, 30 min at 2° C.; read-out: IC50 (concentration of the test substance which inhibits the specific binding of 3H-AMPA by 50%). The source says: L-glutamate (GLU) is the major excitatory neurotransmitter in the mammalian central nervous system. From electrophysiological- and binding studies, there appear to be at least three subtypes of GLU receptors, tentatively named N-methyl-D-aspartate (NMDA)-, quisqualate- and kainate receptors. GLU receptor subtypes sensitive to quisqualate and kainate as a group are often referred to as non-NMDA receptors. Receptor binding studies using the labelled agonists ^3H-AMPA (α-amino-3-hydroxy-5-methyl-4-isoxazolepropionic acid) (for quisqualate receptors) and ^3H-kainate (for kainate receptors) have shown different antagonist selectivities and regional distribution. AMPA has been known for several years to be a potent and selective agonist at the traditionally named quisqualate receptors. Activation of quisqualate receptors by AMPA is associated with Na^+ influx and K^+ efflux leading to depolarization.
The non-NMDA receptors have recently been reclassified to include the quisqualate activated metabotropic receptor type, linked to the inositol triphosphate and diacylglycerate metabolism. […] Selective activation of the metabotropic type has been claimed for trans-ACPD. Recently, the potent and competitive non-NMDA receptor antagonists CNQX and NBQX have been described, and CNQX have been reported not to block the effect of quisqualate at the metabotropic receptor subtype. ^3H-AMPA is a selective radioligand for labelling the ionotropic quisqualate (AMPA) receptors.
Preparations are performed at 0–4° C. unless otherwise indicated. Cerebral cortex from male Wistar rats (150–200 g) is homogenized for 5–10 sec in 20 ml Tris-HCl (30 mM, pH 7.4) using an Ultra-Turrax homogenizer. The suspension is centrifuged at 27,000×g for 15 min and the pellet is washed three times with buffer (centrifuged at 27,000×g for 10 min). The washed pellet is homogenized in 20 ml of buffer and incubated on a water bath (37° C.) for 30 min to remove endogenous glutamate and then centrifuged for 10 min at 27,000×g. The pellet is then homogenized in buffer and centrifuged at for 10 min at 27,000×g. The final pellet is resuspended in 30 ml buffer and the preparation is frozen and stored at −20° C.
The membrane preparation is thawed and centrifuged at 2° C. for 10 min at 27,000×g for 10 min. The pellet is washed twice with 20 ml 30 mM Tris-HCl containing 2.5 mM CaCl2, pH 7.4 using an Ultra-Turrax homogenizer and centrifuged for 10 min at 27,000×g. The final pellet is resuspended in 30 mM Tris-HCl containing 2.5 mM CaCl2 and 100 mM KSCN, pH 7.4 (100 ml per g of original tissue) and used for binding assays. Aliquots of 0.5 (0.2) ml are added to 25 (20) μl of test solution and 25(20) μl of ^3H-AMPA (5 nM, final concentration), mixed and incubated for 30 min at 2° C. Non-specific binding is determined using L-glutamate (0.6 mM, final concentration). After incubation the 550 μl samples are added 5 ml of ice-cold buffer and poured directly onto Whatman GF/C glass fibre filters under suction and immediately washed with 5 ml of ice-cold buffer. The 240 μl samples are filtered over glass fibre filter using a Skatron cell harvrester. The filters are washed with 3 ml ice-cold buffer. The amount of radioactivity on the filters is determined by conventional liquid scintillation counting. Specific binding is total binding minus non-specific binding.
The test value will be given as the IC50 (the concentration (μM) of the test substance which inhibits the specific binding of ^3H-AMPA by 50%)

Data set [2] has as its system AMPA receptor. In words: Voltage clamp (whole cell patch clamp), current induced by AMPA in cultured mouse neocortical neurons. Type of data set: cell-based. The procedure: Experiments were performed in voltage clamp using conventional whole cell patch clamp methods (Hamill et al., 1981), essentially as described previously (Mathiesen et al., 1998). The following salt solutions were used (mM): NaCl (140), KCl (4), CaCl2 (2), MgCl2 (1), Sucrose (30), Tetrodotoxin (0.0003), Bicuculline Methiodide (0.005) and HEPES (10, pH 7.4). Intracellular solution (mM): CsCl (120), CsF (20), MgCl2 (2), EGTA (10), HEPES (10, pH=7.2).
Mouse neocortical neurons were cultured essentially as described by Drejer et al. (1987). Briefly, the forebrains from embryonic (E17) NMRI mice were removed under sterile conditions. The tissue was chopped in 0.4 mm cubes and the triturated with trypsin (12.5 μg/ml) and DNAse (2.5 μg/ml), 15 min, 37° C. The cells were suspended at a concentration of 1×10^6 cells/ml in a slightly modified DMEM which contained horse serum (10% (v/v)), penicillin (333 U/ml), paraaminobenzoic acid (1 mg/ml), L-glutamine (0.5 mM), insulin (0.08 U/ml) and KCl (23.8 mM). The cell suspension was subsequently inoculated into poly-L-lysine coated 35 mm Petri dishes (2 ml/dish). Glass coverslips (3.5 mm) were placed in the dishes before coating. After 24 hr in culture, the medium was replaced by freshly made medium containing 1% N2 supplement instead of serum.
The cells were kept in culture for 7–14 days at 37° C. (5% CO2/95% O2) before experiments were carried out.
Electronics, programs and data acquisition: The amplifier used was the EPC-9 (HEKA-electronics, Lambrect, Germany) run by a Power Macintosh G3 computer via an ITC-16 interface. Experimental conditions were set with the Pulse-software accompanying the amplifier. Data were low pass filtered and sampled directly to hard-disk at a rate of 3 times the cut-off frequency.
Pipettes and electrodes: Pipettes were pulled from borosilicate glass (Modulohm, Copenhagen, Denmark) using a horizontal electrode puller (Zeitz-Instrumente, Augsburg, Germany). The pipette resistances were 1.7–2.4 MW in the salt solutions used in these experiments. The pipette electrode was a chloridized silver wire, and the reference was a silverchloride pellet electrode (In Vivo Metric, Healdsburg, USA) fixed to the experimental chamber. The electrodes were zeroed with the open pipette in the bath just prior to sealing.
Experimental procedure: Coverslips were transferred to a […] experimental chamber mounted on the stage of an inverted microscope (IMT-2, Olympus) supplied with Nomarski optics. The neurons were continuously superfused with extracellular saline at a rate of 2.5 ml/min. After giga-seal formation (1–5 GW, success-rate≈90%) the whole cell configuration was attained by suction.
The cells were held at a holding voltage of −60 mV and at the start of each experiment the current was continuously measured for at least 30 sec to ensure a stable leak current. AMPA-containing solutions were delivered to the chamber through a custom-made gravity-driven flowpipe, the tip of which was placed approximately 50 μm from the cell. Application was triggered when the tubing connected to the flow pipe was compressed by a valve controlled by the Pulse-software. AMPA (30 μM) was applied for 1 sec every 45 sec. After obtainment of responses of a repeatable amplitude the compound to be tested was included in both the chamber and in the AMPA-containing solution. The compound was present until responses of a new repeatable was obtained.
The sample interval in all experiments was 310 μsec.
All experiments were performed at room temperature (20–25° C.).
A general note: The patch-clamp technique gives a direct electrical read-out from membranes.

Regarding `CN(C)S(=O)(=O)c1ccc2c(c1)S(=O)(=O)NC(C1CCCCC1)N2` (stereo not shown) [Compound 47, 3-Cyclohexyl-7-dimethylaminosulfonyl-1,2,3,4-tetrahydro-1,2,4-benzothiadiazine-1,1-dioxide], in data set [1], the IC50 came to 5.3 µM.
On to `CCN(CC)S(=O)(=O)c1ccc2c(c1)S(=O)(=O)NC(C1CCCCC1)N2` (stereo not shown) [Compound 48, 3-Cyclohexyl-7-(N,N-diethylamino)sulfonyl-1,2,3,4-tetrahydro-1,2,4-benzothiadiazine-1,1-dioxide], for which the IC50 in data set [1] is 4.4 µM.
With `O=S1(=O)NC(C2CCCCC2)Nc2ccc(S(=O)(=O)N3CCCC3)cc21` (stereo not shown) [Compound 49, 3-Cyclohexyl-7-pyrrolidinosulfonyl-1,2,3,4-tetrahydro-1,2,4-benzothiadiazine-1,1-dioxide], the IC50 in data set [1] was 17 µM.
The same measure, in the same setting: under `O=S1(=O)NC(C2CC3C=CC2C3)Nc2ccc(S(=O)(=O)N3CCCCC3)cc21` (stereo not shown) [Compound 57, 3-Bicyclo[2.2.1]hept-5′-en-2′-yl-7-piperidinosulfonyl-1,2,3,4-tetrahydro-1,2,4-benzothiadiazine-1,1-dioxide] stands 26 µM.
On to `O=S1(=O)NC(C2CCCCC2)Nc2ccc(S(=O)(=O)N3CC=CCC3)cc21` (stereo not shown) [Compound 58, 3-Cyclohexyl-7-(1′,2′,3′,6′-tetrahydropiperidino)sulfonyl-1,2,3,4-tetrahydro-1,2,4-benzothiadiazine-1,1-dioxide], for which the IC50 in data set [1] is 3.4 µM.
For the compound `CS(=O)(=O)N1CCN(S(=O)(=O)c2ccc3c(c2)S(=O)(=O)NC(C2CCCCC2)N3)CC1` (stereo not shown) [Compound 62, 3-Cyclohexyl-7-(4′-methylsulfonylpiperazino)sulfonyl-1,2,3,4-tetrahydro-1,2,4-benzothiadiazine-1,1-dioxide], the IC50 in data set [1] was 6 µM.
In the case of `Cc1cc2c(cc1-c1ccccn1)S(=O)(=O)NC(C1CCCCC1)N2` (stereo not shown) [Compound 111, 3-Cyclohexyl-6-methyl-7-(2′-pyridyl)-1,2,3,4-tetrahydro-1,2,4-benzothiadiazine-1,1-dioxide], in data set [2] (after wash out of the compound), the “reversibility of the potentiation” value is given as “reversible”. Moreover, in data set [2] (compound 10 μM, holding voltage −60 mV), the “potentiation of the current induced by application of 30 μM AMPA” value is listed as “potentiated”.
By melting point is commonly meant the temperature, or range, at which the solid turns liquid. The compound `Cc1cc2c(cc1S(N)(=O)=O)S(=O)(=O)NC(C1CCCCC1)N2` (stereo not shown) [Compound 113, 3-Cyclohexyl-6-methyl-7-sulfamoyl-1,2,3,4-tetrahydro-1,2,4-benzothiadiazine-1,1-dioxide] returned a melting point of 231 to 233 °C. In addition, the IC50 in data set [1] turned out to be 13 µM.
